Source: PubChem BioAssay AID652043 (Broad Institute, 2013)
Calls of active or inactive are those of the source.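 How the source made its calls: active means fitted curve drops below -35% activity change at a concentration within twice the highest valid tested dose; inactive means activity opposite to the expected direction, or the rest.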

System: not listed separately
Assay: canonical NF-kB pathway blockers in HEK293 – cell-based, flow cytometry, eGFP/dsRED, dry powder, selectivity assay for LMP1 NF-kB inhibitor project, dose response (AID 652043)
Settings: HEK293 TNFa-induced NF-kB eGFP reporter, flow cytometry, 16 h; at 18 µM (top of the series)

Q: With `Cc1cc(C(=O)Nc2ccc3c(c2)C(=O)N(C)[C@@H]2CC[C@H](CC(=O)NCc4ccc(-c5ccccc5)cc4)O[C@H]2CO3)no1` as the compound, how does the activity change, negative = inhibition read?
A: -3.35% (inactive)

Same assay, conditions: HEK293 TNFa-induced NF-kB eGFP reporter, flow cytometry, 16 h; at 19.5 µM (top of the series)

Q: For `COCCNC(=O)C[C@@H]1C[C@H]2c3cc(N(C)C)ccc3O[C@H]2[C@H](CO)O1`, which activity change, negative = inhibition is on record?
A: -5.65% (inactive)

Q: For `CN(C)c1ccc2c(c1)[C@@H]1C[C@@H](CC(=O)NCc3ccncc3)O[C@@H](CO)[C@@H]1O2`, which activity change, negative = inhibition is on record?
A: 0.09% (inactive)

Q: For `CN(C)c1ccc2c(c1)[C@@H]1C[C@@H](CC(=O)NCc3cccc(F)c3)O[C@@H](CO)[C@@H]1O2`, which activity change, negative = inhibition is on record?
A: -9.54% (inactive)

Q: For `CN(C)c1ccc2c(c1)[C@@H]1C[C@@H](CC(=O)NCc3ccc(Oc4ccccc4)cc3)O[C@@H](CO)[C@@H]1O2`, which activity change, negative = inhibition is on record?
A: -5.55% (inactive)

Q: For `CN(C)c1ccc2c(c1)[C@@H]1C[C@@H](CC(=O)NC3CCCCC3)O[C@@H](CO)[C@@H]1O2`, which activity change, negative = inhibition is on record?
A: -7.37% (inactive)

Q: Which activity change, negative = inhibition does the source give for `COCCNC(=O)C[C@H]1CC[C@@H]2[C@H](COc3ccc(NC(=O)c4cc(C)on4)cc3C(=O)N2C)O1` here?
A: -8.48% (inactive)

Q: Which activity change, negative = inhibition does the source give for `CN(C)c1ccc2c(c1)[C@@H]1C[C@@H](CC(=O)NCc3ccccn3)O[C@@H](CO)[C@@H]1O2` here?
A: -11.4% (inactive)

Q: Which activity change, negative = inhibition does the source give for `CN(C)c1ccc2c(c1)[C@@H]1C[C@@H](CC(=O)NCC3CC3)O[C@@H](CO)[C@@H]1O2` here?
A: -0.472% (inactive)

Q: Which activity change, negative = inhibition does the source give for `CCNC(=O)C[C@H]1CC[C@@H]2[C@H](COc3ccc(NC(=O)c4cc(C)on4)cc3C(=O)N2C)O1` here?
A: -0.229% (inactive)

Q: Which activity change, negative = inhibition does the source give for `CN1C(=O)c2cc(NS(C)(=O)=O)ccc2OC[C@@H]2O[C@@H](CC(=O)NCc3ccc(-c4ccccc4)cc3)CC[C@H]21` here?
A: -0.9% (inactive)

Q: With `CN(C)c1ccc2c(c1)[C@@H]1C[C@@H](CC(=O)NCc3ccc4c(c3)OCO4)O[C@@H](CO)[C@@H]1O2` as the compound, how does the activity change, negative = inhibition read?
A: -10.4% (inactive)

Q: Which activity change, negative = inhibition does the source give for `O=C(C[C@@H]1C[C@H]2c3cc(NS(=O)(=O)c4ccc(F)cc4)ccc3O[C@H]2[C@H](CO)O1)NCc1ccc(Oc2ccccc2)cc1` here?
A: -4.18% (inactive)

Q: For `COc1ccccc1CNC(=O)C[C@@H]1C[C@H]2c3cc(N(C)C)ccc3O[C@H]2[C@H](CO)O1`, which activity change, negative = inhibition is on record?
A: -11.3% (inactive)

Q: Which activity change, negative = inhibition does the source give for `CNC(=O)C[C@H]1CC[C@@H]2[C@H](COc3ccc(NC(=O)c4cc(C)on4)cc3C(=O)N2C)O1` here?
A: -1.72% (inactive)

Q: With `CCCNC(=O)C[C@H]1CC[C@@H]2[C@H](COc3ccc(NC(=O)c4cc(C)on4)cc3C(=O)N2C)O1` as the compound, how does the activity change, negative = inhibition read?
A: -2.12% (inactive)

Q: Which activity change, negative = inhibition does the source give for `CN(C)c1ccc2c(c1)[C@@H]1C[C@@H](CC(=O)N3CCc4ccccc4C3)O[C@@H](CO)[C@@H]1O2` here?
A: -1.46% (inactive)

Q: For `CN(C)c1ccc2c(c1)[C@@H]1C[C@@H](CC(=O)NCCc3ccccc3)O[C@@H](CO)[C@@H]1O2`, which activity change, negative = inhibition is on record?
A: -3.65% (inactive)

Same assay, conditions: HEK293 TNFa-induced NF-kB eGFP reporter, flow cytometry, 16 h; at 21 µM (top of the series)

Q: For `Cc1cc(C(=O)Nc2ccc3c(c2)C(=O)N(C)[C@@H]2CC[C@H](CC(=O)N[C@@H](C)c4ccccc4)O[C@H]2CO3)no1`, which activity change, negative = inhibition is on record?
A: -5.47% (inactive)

Q: With `Cc1cc(C(=O)Nc2ccc3c(c2)C(=O)N(C)[C@@H]2CC[C@H](CC(=O)NCc4ccc(-c5ccccc5)cc4)O[C@@H]2CO3)no1` as the compound, how does the activity change, negative = inhibition read?
A: -0.92% (inactive)

System: HEK293 TNFa-induced NF-kB eGFP reporter, flow cytometry, 16 h
Assay: as above
Settings: not given

Q: Which AC35 does the source give for `COc1ccccc1[C@]1(C)ON(c2ccccc2C(F)(F)F)C1=O` here?
A: 10.6 µM

Q: Which AC35 does the source give for `Cc1cc(C(=O)Nc2ccc3c(c2)C(=O)N(C)[C@@H]2CC[C@H](CC(=O)NC4CCCC4)O[C@H]2CO3)no1` here?
A: 10 µM

Q: Which AC35 does the source give for `O=C(C[C@@H]1C[C@H]2c3cc(NC(=O)C4CCOCC4)ccc3O[C@H]2[C@H](CO)O1)NCc1ccc(Oc2ccccc2)cc1` here?
A: 16.4 µM

Q: For `CN(C)c1ccc2c(c1)[C@@H]1C[C@@H](CC(=O)N3CCOCC3)O[C@@H](CO)[C@@H]1O2`, which AC35 is on record?
A: 1.95 µM

Q: With `O=C(C[C@@H]1C[C@H]2c3cc(NC(=O)Nc4ccccc4F)ccc3O[C@H]2[C@H](CO)O1)NCc1ccc(Oc2ccccc2)cc1` as the compound, how does the AC35 read?
A: 16.2 µM

Q: For `Nc1ccn([C@@H]2O[C@H](CO)[C@@H](O)C2O)c(=O)n1` (some centres not stated), which AC35 is on record?
A: 7.24 µM

Q: With `Cc1cc(C(=O)Nc2ccc3c(c2)C(=O)N(C)[C@@H]2CC[C@H](CC(=O)N[C@H](C)c4ccccc4)O[C@H]2CO3)no1` as the compound, how does the AC35 read?
A: 18.1 µM

Q: Which AC35 does the source give for `O=C(C[C@@H]1C[C@H]2c3cc(NC(=O)NC4CCCC4)ccc3O[C@H]2[C@H](CO)O1)NCc1ccc(Oc2ccccc2)cc1` here?
A: 8.04 µM

Q: For `CN(C)c1ccc2c(c1)[C@@H]1C[C@@H](CC(=O)NCc3cc(F)ccc3F)O[C@@H](CO)[C@@H]1O2`, which AC35 is on record?
A: 1.41 µM

Q: For `O=C(Nc1ccc(C(F)(F)F)cc1)Nc1ccc2c(c1)[C@H]1C[C@@H](CC(=O)N3CCc4ccccc4C3)O[C@@H](CO)[C@H]1O2`, which AC35 is on record?
A: 15.8 µM

Q: Which AC35 does the source give for `CN1C(=O)c2cc(NC(=O)Nc3ccccc3F)ccc2OC[C@@H]2O[C@@H](CC(=O)NCc3ccc(-c4ccccc4)cc3)CC[C@H]21` here?
A: 0.161 µM

Q: Which AC35 does the source give for `CS(=O)(=O)Nc1ccc2c(c1)[C@@H]1C[C@@H](CC(=O)NCc3ccc(Oc4ccccc4)cc3)O[C@@H](CO)[C@@H]1O2` here?
A: 0.623 µM
